Experiments:
[1] = refractive index (Na D-line) (dimensionless); xn = mol fraction of the nth substance listed; conditions: 101 kPa, Liquid, Standard Abbe refractometry
[2] = relative permittivity at zero frequency (dimensionless); xn = mol fraction of the nth substance listed; conditions: 101 kPa, Liquid, Parallel plate capacitor

COCCOCCOCCOCCOC [2,5,8,11,14-pentaoxapentadecane] + CCCCCCCC
Conditions	refractive index, 293.15 K	refractive index, 298.15 K	refractive index, 303.15 K	relative permittivity at zero frequency, 293.15 K	relative permittivity at zero frequency, 298.15 K	relative permittivity at zero frequency, 303.15 K
[1], x1 = 0.0503	1.3993	1.3969	1.3946	–	–	–
[1], x1 = 0.1003	1.4011	1.3987	1.3965	–	–	–
[1], x1 = 0.1515	1.4031	1.4007	1.3985	–	–	–
[1], x1 = 0.2061	1.4052	1.4028	1.4006	–	–	–
[1], x1 = 0.245	1.4067	1.4043	1.4021	–	–	–
[1], x1 = 0.305	1.4091	1.4067	1.4045	–	–	–
[1], x1 = 0.3569	1.4111	1.4087	1.4065	–	–	–
[1], x1 = 0.4054	1.4127	1.4106	1.4084	–	–	–
[1], x1 = 0.4487	1.4144	1.4122	1.41	–	–	–
[1], x1 = 0.5043	1.4163	1.4142	1.4121	–	–	–
[1], x1 = 0.5537	1.4182	1.4159	1.4138	–	–	–
[1], x1 = 0.5963	1.4195	1.4173	1.4151	–	–	–
[1], x1 = 0.6473	1.4213	1.4191	1.417	–	–	–
[1], x1 = 0.693	1.4228	1.4208	1.4186	–	–	–
[1], x1 = 0.7515	1.4248	1.4227	1.4207	–	–	–
[1], x1 = 0.8067	1.4268	1.4248	1.423	–	–	–
[1], x1 = 0.8475	1.4281	1.426	1.4239	–	–	–
[1], x1 = 0.8941	1.4295	1.4275	1.4256	–	–	–
[1], x1 = 0.947	1.431	1.429	1.4271	–	–	–
[2], x1 = 0.033	–	–	–	2.107	2.098	2.088
[2], x1 = 0.0659	–	–	–	2.254	2.242	2.23
[2], x1 = 0.0998	–	–	–	2.413	2.398	2.382
[2], x1 = 0.133	–	–	–	2.577	2.558	2.538
[2], x1 = 0.1645	–	–	–	2.736	2.715	2.693
[2], x1 = 0.2003	–	–	–	2.922	2.896	2.87
[2], x1 = 0.2488	–	–	–	3.19	3.158	3.126
[2], x1 = 0.3002	–	–	–	3.476	3.438	3.4
[2], x1 = 0.3486	–	–	–	3.762	3.718	3.675
[2], x1 = 0.3951	–	–	–	4.03	3.981	3.931
[2], x1 = 0.4461	–	–	–	4.347	4.291	4.234
[2], x1 = 0.5092	–	–	–	4.738	4.674	4.61
[2], x1 = 0.5516	–	–	–	5.005	4.937	4.867
[2], x1 = 0.6003	–	–	–	5.313	5.238	5.163
[2], x1 = 0.6409	–	–	–	5.578	5.499	5.42
[2], x1 = 0.693	–	–	–	5.909	5.823	5.736
[2], x1 = 0.7072	–	–	–	6.004	5.916	5.827
[2], x1 = 0.7515	–	–	–	6.298	6.205	6.111
[2], x1 = 0.8002	–	–	–	6.622	6.523	6.421
[2], x1 = 0.8461	–	–	–	6.943	6.838	6.732
[2], x1 = 0.8985	–	–	–	7.279	7.168	7.057
[2], x1 = 0.9441	–	–	–	7.585	7.469	7.351

COCCOCCOCCOCCOC [2,5,8,11,14-pentaoxapentadecane] + CCCCCO
Conditions	refractive index, 293.15 K	refractive index, 298.15 K	refractive index, 303.15 K	relative permittivity at zero frequency, 293.15 K	relative permittivity at zero frequency, 298.15 K	relative permittivity at zero frequency, 303.15 K
[1], x2 = 0.0505	1.4319	1.4302	1.4279	–	–	–
[1], x2 = 0.1002	1.4315	1.4294	1.4273	–	–	–
[1], x2 = 0.1509	1.4305	1.4286	1.4265	–	–	–
[1], x2 = 0.1919	1.4301	1.4281	1.4259	–	–	–
[1], x2 = 0.2458	1.4291	1.4272	1.4251	–	–	–
[1], x2 = 0.291	1.4285	1.4265	1.4244	–	–	–
[1], x2 = 0.3384	1.4276	1.4256	1.4236	–	–	–
[1], x2 = 0.3986	1.4265	1.4246	1.4225	–	–	–
[1], x2 = 0.4554	1.4256	1.4235	1.4215	–	–	–
[1], x2 = 0.493	1.4248	1.4229	1.4207	–	–	–
[1], x2 = 0.5496	1.4236	1.4217	1.4196	–	–	–
[1], x2 = 0.5931	1.4227	1.4207	1.4186	–	–	–
[1], x2 = 0.6455	1.4214	1.4194	1.4174	–	–	–
[1], x2 = 0.6979	1.42	1.4181	1.416	–	–	–
[1], x2 = 0.7424	1.4188	1.4168	1.4148	–	–	–
[1], x2 = 0.7959	1.4172	1.4153	1.4133	–	–	–
[1], x2 = 0.8372	1.4159	1.4141	1.4121	–	–	–
[1], x2 = 0.8679	1.4149	1.4131	1.4111	–	–	–
[1], x2 = 0.8987	1.4139	1.4121	1.41	–	–	–
[1], x2 = 0.9225	1.413	1.4112	1.4092	–	–	–
[1], x2 = 0.9488	1.412	1.4102	1.4081	–	–	–
[1], x2 = 0.9793	1.4109	1.409	1.407	–	–	–
[2], x2 = 0.0505	–	–	–	7.99	7.863	7.737
[2], x2 = 0.1002	–	–	–	7.97	7.843	7.715
[2], x2 = 0.1509	–	–	–	8.043	7.911	7.779
[2], x2 = 0.1919	–	–	–	8.041	7.906	7.771
[2], x2 = 0.2458	–	–	–	8.132	7.993	7.854
[2], x2 = 0.291	–	–	–	8.15	8.009	7.866
[2], x2 = 0.3384	–	–	–	8.271	8.119	7.968
[2], x2 = 0.3986	–	–	–	8.344	8.186	8.029
[2], x2 = 0.4554	–	–	–	8.523	8.35	8.18
[2], x2 = 0.493	–	–	–	8.615	8.438	8.26
[2], x2 = 0.5496	–	–	–	8.857	8.662	8.469
[2], x2 = 0.5931	–	–	–	9.027	8.819	8.615
[2], x2 = 0.6455	–	–	–	9.353	9.122	8.896
[2], x2 = 0.6979	–	–	–	9.71	9.454	9.203
[2], x2 = 0.7424	–	–	–	10.138	9.853	9.577
[2], x2 = 0.7959	–	–	–	10.73	10.413	10.103
[2], x2 = 0.8372	–	–	–	11.351	10.992	10.643
[2], x2 = 0.8679	–	–	–	11.894	11.506	11.123
[2], x2 = 0.8987	–	–	–	12.519	12.102	11.691
[2], x2 = 0.9225	–	–	–	13.119	12.665	12.217
[2], x2 = 0.9488	–	–	–	13.878	13.383	12.896
[2], x2 = 0.9793	–	–	–	14.929	14.377	13.834
